This passage reports IC50 results from patent US20240124442A1, “TRICYCLIC-AMIDO-BICYCLIC PRMT5 INHIBITORS” (AMGEN INC., priority 2021, published 2024).

One test deals with HCT116 MTAP null cells. The experiment in a line: HCT116 MTAP null cell line proliferation / cell viability (CellTiter-Glo, 6 days). The format is cell-based. The conditions noted are these: 144 h; HCT116 MTAP null cells, 6 days treatment, CellTiter-Glo cell viability; read-out: HCT-116 MTAP null IC50. The essentials:
(§1)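 WT vs MTAP-null HCT116, 6 d drug, CTG readout. 1:3 × 8–9 pts (top 1/10 μM) or 1:2 × 22 pts (top 10/50 μM). IC50 by 4PL or Hill −1 fit.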
In general terms: Cellular ATP, detected with luciferase, serves as a proxy for viable cell number.

The test system of a further test is HCT116 WT cells. The experiment in a line: HCT116 WT (parent) cell line proliferation / cell viability (CellTiter-Glo, 6 days). The format is cell-based. As to conditions: Homo sapiens, HCT-116, 144 h, 6 days treatment. The essentials: as §1

`Cc1nc2nc(N)c3cnn(C)c3c2cc1C(=O)N(C)[C@@H]1COCc2cc(C(F)(F)F)ccc21` [Example 300, 4-amino-N,1,7-trimethyl-N-((4S)-7-(trifluoromethyl)-3,4-dihydro-1H-2-benzopyran-4-yl)-1H-pyrazolo[4,3-c][1,8]-naphthyridine-8-carboxamide]: the IC50 in the test with HCT116 MTAP null cells turned out to be 16 nM; in the test on HCT116 WT cells it was 225 nM.

For the molecule `Cc1nc2nc(N)c3cnn(C)c3c2cc1C(=O)N(C)[C@@H]1COCc2nc(C(F)(F)F)ccc21` [Example 301, 4-amino-N,1,7-trimethyl-N-((5S)-2-(trifluoromethyl)-5,8-dihydro-6H-pyrano[3,4-b]pyridin-5-yl)-1H-pyrazolo-[4,3-c][1,8]naphthyridine-8-carboxamide], the concentration for half-maximal inhibition (IC50) in the test on HCT116 MTAP null cells worked out at 28 nM; with HCT116 WT cells, 1250 nM.

For the molecule `CN(C(=O)c1cc2c(cc1C(F)(F)F)nc(N)c1cnn(C)c12)[C@@H]1COCc2cc(C(F)(F)F)ccc21` [Example 302, 4-amino-N,1-dimethyl-7-(trifluoromethyl)-N-((4S)-7-(trifluoromethyl)-3,4-dihydro-1H-2-benzopyran-4-yl)-1H-pyrazolo[4,3-c]quinoline-8-carboxamide], the IC50 stood at 6 nM in the test on HCT116 MTAP null cells and 161 nM in the test on HCT116 WT cells.

Turning to `CN(C(=O)c1cc2c(cc1C(F)(F)F)nc(N)c1cnn(C)c12)[C@@H]1COCc2nc(C(F)(F)F)ccc21` [Example 303, 4-amino-N,1-dimethyl-7-(trifluoromethyl)-N-((5S)-2-(trifluoromethyl)-5,8-dihydro-6H-pyrano[3,4-b]pyridin-5-yl)-1H-pyrazolo[4,3-c]quinoline-8-carboxamide], the IC50 in the test on HCT116 MTAP null cells was 14 nM; with HCT116 WT cells it was 902 nM.

Regarding `CN(C(=O)c1cc2c(cn1)nc(N)c1c2cnn1C)[C@@H]1COCc2nc(C(F)(F)F)ccc21` [Example 304, 4-amino-N,3-dimethyl-N-((5S)-2-(trifluoromethyl)-5,8-dihydro-6H-pyrano[3,4-b]pyridin-5-yl)-3H-pyrazolo[3,4-c][1,7]naph-thyridine-8-carboxamide], the concentration for half-maximal inhibition (IC50) in the test on HCT116 MTAP null cells was found to be 198 nM; in the test on HCT116 WT cells, 9230 nM.

In the case of `CCN(C(=O)c1cc2c(cc1F)nc(N)c1c2cnn1C)[C@@H]1COCc2nc(C(F)(F)F)ccc21` [Example 305, 4-amino-N-ethyl-7-fluoro-3-methyl-N-((5S)-2-(trifluoro-methyl)-5,8-dihydro-6H-pyrano[3,4-b]pyridin-5-yl)-3H-pyrazolo[3,4-c]quinoline-8-carboxamide], the values for the IC50 in the test on HCT116 MTAP null cells and in the test on HCT116 WT cells were 20 nM and 429 nM, respectively.

On to `CN(C(=O)c1cc2c(cc1F)nc(N)c1c2cnn1C)C1COCc2cc(OC(F)(F)F)ccc21` [Example 306, 4-amino-7-fluoro-N,3-dimethyl-N-((4R)-7-(trifluoromethoxy)-3,4-dihydro-1H-2-benzopyran-4-yl)-3H-pyrazolo[3,4-c]quin-oline-8-carboxamide and 4-amino-7-fluoro-N,3-dimethyl-N-((4S)-7-(trifluoromethoxy)-3,4-dihydro-1H-2-benzopyran-4-yl)-3H-pyrazolo[3,4-c]quin-oline-8-carboxamide], for which the values for the concentration for half-maximal inhibition (IC50) in the test with HCT116 MTAP null cells and in the test on HCT116 WT cells were 111 nM and 5060 nM, respectively.

As to `CCN(C(=O)c1cc2c(cc1C)nc(N)c1c2cnn1C)[C@@H]1COCc2nc(C(F)(F)F)ccc21` [Example 307, 4-amino-N-ethyl-3,7-dimethyl-N-((5S)-2-(trifluoromethyl)-5,8-dihydro-6H-pyrano[3,4-b]-pyridin-5-yl)-3H-pyrazolo-[3,4-c]quinoline-8-carboxamide], the concentration for half-maximal inhibition (IC50) in the test on HCT116 MTAP null cells was determined as 19 nM; with HCT116 WT cells, 471 nM.

`Cc1n[nH]c2c1c(N)nc1ccc(C(=O)N(C)[C@@H]3COCc4nc(C(F)(F)F)ccc43)cc12` [Example 308, 4-amino-N,3-dimethyl-N-((5S)-2-(trifluoromethyl)-5,8-dihydro-6H-pyrano[3,4-b]pyridin-5-yl)-1H-pyrazolo[4,3-c]quinoline-8-carboxamide]: the half-inhibitory concentration (IC50) with HCT116 MTAP null cells was 76 nM; in the test with HCT116 WT cells, 4130 nM.

On to `Cc1nn(C)c2c1c(N)nc1ccc(C(=O)N(C)[C@@H]3COCc4nc(C(F)(F)F)ccc43)cc12` [Example 309, 4-amino-N,1,3-trimethyl-N-((5S)-2-(trifluoromethyl)-5,8-dihydro-6H-pyrano[3,4-b]pyr-idin-5-yl)-1H-pyrazolo[4,3-c]-quinoline-8-carboxamide], for which the IC50 turned out to be 150 nM in the test with HCT116 MTAP null cells and 9590 nM in the test on HCT116 WT cells.

`Cc1n[nH]c2c1c(N)nc1cnc(C(=O)N(C)[C@@H]3COCc4nc(C(F)(F)F)ccc43)cc12` [Example 310, 4-amino-N,3-dimethyl-N-((5S)-2-(trifluoromethyl)-5,8-dihydro-6H-pyrano[3,4-b]pyridin-5-yl)-1H-pyrazolo-[4,3-c][1,7]naphthyridine-8-carboxamide]: the 50% inhibitory concentration (IC50) worked out at 110 nM in the test on HCT116 MTAP null cells and 7380 nM with HCT116 WT cells.

Take `Cc1nn(C)c2c1c(N)nc1cnc(C(=O)N(C)[C@@H]3COCc4cc(C(F)(F)F)ccc43)cc12` [Example 311, 4-amino-N,1,3-trimethyl-N-((4S)-7-(trifluoromethyl)-3,4-dihydro-1H-2-benzopyran-4-yl)-1H-pyrazolo[4,3-c][1,7]-naphthyridine-8-carboxamide]: the IC50 turned out to be 30 nM with HCT116 MTAP null cells and 1020 nM in the test on HCT116 WT cells.

For the molecule `Cc1nn(C)c2c1c(N)nc1cnc(C(=O)N(C)[C@@H]3COCc4nc(C(F)(F)F)ccc43)cc12` [Example 312, 4-amino-N,1,3-trimethyl-N-((5S)-2-(trifluoromethyl)-5,8-dihydro-6H-pyrano[3,4-b]-pyridin-5-yl)-1H-pyrazolo-[4,3-c][1,7]naphthyridine-8-carboxamide], the concentration for half-maximal inhibition (IC50) was found to be 103 nM in the test with HCT116 MTAP null cells and 9480 nM with HCT116 WT cells.

As to `Cc1nn(C)c2c1c(N)nc1cc(F)c(C(=O)N(C)[C@@H]3COCc4cc(C(F)(F)F)ccc43)cc12` [Example 313, 4-amino-7-fluoro-N,1,3-trimeth-yl-N-((4S)-7-(trifluoromethyl)-3,4-dihydro-1H-2-benzopyran-4-yl)-1H-pyrazolo[4,3-c]quin-oline-8-carboxamide], the results for the IC50 in the test with HCT116 MTAP null cells and in the test with HCT116 WT cells were 14 nM and 523 nM, respectively.

As for `Cc1nn(C)c2c1c(N)nc1cc(F)c(C(=O)N(C)[C@@H]3COCc4nc(C(F)(F)F)ccc43)cc12` [Example 314, 4-amino-7-fluoro-N,1,3-trimeth-yl-N-((5S)-2-(trifluoromethyl)-5,8-dihydro-6H-pyrano[3,4-b]-pyridin-5-yl)-1H-pyrazolo[4,3-c]quinoline-8-carboxamide], the figures for the IC50 in the test with HCT116 MTAP null cells and with HCT116 WT cells were 41 nM and 2630 nM, respectively.

Consider `CN(C(=O)c1ccc2nc(N)c(I)cc2c1)[C@@H]1COCc2nc(C(F)(F)F)ccc21` [Example 315, 2-amino-3-iodo-N-methyl-N-((5S)-2-(trifluoromethyl)-5,8-dihydro-6H-pyrano[3,4-b]pyridin-5-yl)-6-quinoline-carboxamide], for which the IC50 was 508 nM with HCT116 MTAP null cells and 13400 nM with HCT116 WT cells.

As for `Cc1cc2nc(N)c3cnn(C)c3c2cc1C(=O)N(C)C1CCOCc2nc(C(F)(F)F)ccc21` [Example 316, 4-amino-N,1,7-trimethyl-N-(5R)-2-(trifluoromethyl)-5,6,7,9-tetrahydrooxepino[3,4-b]pyridin-5-yl)-1H-pyrazolo-[4,3-c]quinoline-8-carboxamide and 4-amino-N,1,7-trimethyl-N-((5S)-2-(trifluoromethyl)-5,6,7,9-tetrahydrooxepino[3,4-b]pyridin-5-yl)-1H-pyrazolo-[4,3-c]quinoline-8-carboxamide], the concentration for half-maximal inhibition (IC50) came out at 26 nM with HCT116 MTAP null cells and 1720 nM in the test on HCT116 WT cells.

In the case of `Nc1nc2cc(Cl)c(C(=O)N(C3CC3)[C@@H]3COc4cc(C(F)(F)F)ccc43)cc2c2c1COC2` [Example 442, (S)-4-amino-7-chloro-N-cyclopropyl-N-(6-(trifluoromethyl)-2,3-dihydrobenzofuran-3-yl)-1,3-dihydrofuro[3,4-c]quinoline-8-carboxamide], the IC50 was determined as 9 nM with HCT116 MTAP null cells and 200 nM with HCT116 WT cells.

Take `Nc1nc2cc(Cl)c(C(=O)N(C3CC3)[C@H]3COc4cc(C(F)(F)F)ccc43)cc2c2c1COC2` [Example 443, 4-amino-7-chloro-N-cyclopropyl-N-((3R)-6-(trifluoromethyl)-2,3-dihydro-1-benzofuran-3-yl)-1,3-dihydrofuro[3,4-c]quinoline-8-carboxamide]: the half-inhibitory concentration (IC50) is 433 nM in the test with HCT116 MTAP null cells and 3460 nM with HCT116 WT cells.

Regarding `CN(C(=O)c1ccc2nc(N)c3c(c2c1)COC3)[C@@H]1COc2cc(S(C)(=N)=O)ccc21` (stereo partly drawn) [Example 446, 4-amino-N-methyl-N-((3S)-6-(S-methylsulfonimidoyl)-2,3-dihydro-1-benzofuran-3-yl)-1,3-dihydrofuro[3,4-c]quinoline-8-carboxamide], the IC50 turned out to be 864 nM with HCT116 MTAP null cells and 36000 nM with HCT116 WT cells.

On to `Nc1nc2ccc(C(=O)N(C3CC3)[C@@H]3COc4cc(C(F)(F)F)ccc43)cc2c2c1COC2` [Example 448, 4-amino-N-cyclopropyl-N-((3S)-6-(trifluoromethyl)-2,3-dihydro-1-benzofuran-3-yl)-1,3-dihydrofuro[3,4-c]quinoline-8-carboxamide], for which the half-inhibitory concentration (IC50) with HCT116 MTAP null cells came out at 58 nM; with HCT116 WT cells, 3710 nM.

On to `CCN(C(=O)c1ccc2nc(N)c3c(c2c1)COC3)c1coc2cc(C(F)(F)F)ccc12` [Example 451, 4-amino-N-ethyl-N-(6-(trifluoromethyl)-1-benzofuran-3-yl)-1,3-dihydrofuro[3,4-c]quinoline-8-carboxamide], for which the half-maximal inhibitory concentration (IC50) came to 5180 nM in the test with HCT116 MTAP null cells and 9520 nM in the test on HCT116 WT cells.

On to `CN(C(=O)c1cc2c3c(c(N)nc2cn1)COC3)[C@@H]1COc2cc(F)c(F)cc21` [Example 452, 4-amino-N-((3S)-5,6-difluoro-2,3-dihydro-1-benzofuran-3-yl)-N-methyl-1,3-dihydrofuro[3,4-c][1,7]naphthyridine-8-carboxamide], for which the half-inhibitory concentration (IC50) with HCT116 MTAP null cells is 173 nM; with HCT116 WT cells, 13400 nM.

In general, IC50 refers to the point on the concentration scale where inhibition reaches its midpoint.
